Experimental data from US10059701B2 (Merck Patent GmbH, priority 2015, dated 2018).

How the values were obtained:
IRAK1 = biological target: T1, IRAK1 (Homo sapiens, UniProt P51617); assay: IRAK1 enzymatic assay (ADP-Glo luminescence); format: biochemical; settings: purified human recombinant His-TEV-IRAK1 (194-712)
T1 construct: His-TEV-IRAK1 (194-712); His (N); TEV cleavage site (N)
In short: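 Recombinant human His-TEV-IRAK1 (194-712), 0.3 μg/ml, preincubated 15 min at RT with compounds (10 μM to 0.5 nM) in 50 mM Hepes pH 7.0, 10 mM MgCl2, 2 mM DTT, 0.1% BSA. ATP-started reaction run 2 hours at RT; ADP formed from ATP hydrolysis/autophosphorylation read by ADP-Glo luminescence.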

IRAK4 = biological target: T2, IRAK4 (Homo sapiens, UniProt Q9NWZ3); assay: IRAK4 enzymatic assay (ADP-Glo luminescence); format: biochemical; settings: purified human recombinant His-TEV-IRAK4 (1-460), ATP 2 μM
T2 construct: His-TEV-IRAK4 (1-460); His (N); TEV cleavage site (N)
T2 sequence (Q9NWZ3 1-460): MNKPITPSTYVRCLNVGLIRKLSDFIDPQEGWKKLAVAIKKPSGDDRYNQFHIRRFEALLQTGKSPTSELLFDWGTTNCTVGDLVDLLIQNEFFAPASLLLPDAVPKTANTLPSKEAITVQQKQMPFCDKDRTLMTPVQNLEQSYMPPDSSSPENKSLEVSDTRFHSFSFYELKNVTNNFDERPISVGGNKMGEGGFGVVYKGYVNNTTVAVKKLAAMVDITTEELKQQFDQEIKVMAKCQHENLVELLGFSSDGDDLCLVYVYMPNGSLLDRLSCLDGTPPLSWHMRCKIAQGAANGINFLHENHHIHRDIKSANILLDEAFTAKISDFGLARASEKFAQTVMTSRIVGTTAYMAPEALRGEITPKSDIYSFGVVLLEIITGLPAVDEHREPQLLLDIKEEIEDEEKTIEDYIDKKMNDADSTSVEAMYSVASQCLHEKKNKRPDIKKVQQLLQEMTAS
In short: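 Recombinant His-TEV-IRAK4 (1-460) at 0.3 μg/ml preincubated 15 min at RT with compounds (10 μM to 0.5 nM) in Hepes pH 7.0 buffer with MgCl2/MnCl2. Reaction started with 2 μM ATP and 300 nM STK1-biotin peptide, run 2 h at RT. ADP formed read by ADP-Glo luminescence.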

T1 sequence (P51617 194-712): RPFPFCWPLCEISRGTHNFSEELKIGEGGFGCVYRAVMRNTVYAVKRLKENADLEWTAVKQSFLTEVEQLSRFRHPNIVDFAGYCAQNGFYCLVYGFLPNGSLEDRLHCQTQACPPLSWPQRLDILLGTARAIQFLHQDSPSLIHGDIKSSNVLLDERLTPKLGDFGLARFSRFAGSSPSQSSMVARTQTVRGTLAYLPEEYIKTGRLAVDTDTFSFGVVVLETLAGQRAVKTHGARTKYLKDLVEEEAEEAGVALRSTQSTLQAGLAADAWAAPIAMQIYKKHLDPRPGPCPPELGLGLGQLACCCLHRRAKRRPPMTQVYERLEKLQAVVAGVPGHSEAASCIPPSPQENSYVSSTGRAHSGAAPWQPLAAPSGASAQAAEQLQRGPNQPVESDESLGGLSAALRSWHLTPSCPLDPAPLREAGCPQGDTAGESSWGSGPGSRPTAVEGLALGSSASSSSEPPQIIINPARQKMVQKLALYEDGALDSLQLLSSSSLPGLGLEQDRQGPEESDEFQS

SMILES	IC50 (IRAK1)	IC50 (IRAK4)
O=C(/N=c1\[nH]c2cc(N3CCOCC3=O)c(Br)cc2n1CCCO)c1cccc(C(F)(F)F)c1 [Compound 50, (E)-N-(6-bromo-1-(3-hydroxypropyl)-5-(3-oxomorpholino)-1H-benzo[d]imidazol-2(3H)-ylidene)-3-(trifluoromethyl)benzamide]	100 to 1000 nM	≤ 100 nM
COc1cc2c(cc1N1CCOCC1=O)[nH]/c(=N\C(=O)c1cccc(C#N)c1)n2CC1(CO)CC1 [Compound 51, (E)-3-cyano-N-(1-((1-(hydroxymethyl)cyclopropyl)methyl)-6-methoxy-5-(3-oxomorpholino)-1H-benzo[d]imidazol-2(3H)-ylidene)benzamide]	100 to 1000 nM	≤ 100 nM
COc1cc2c(cc1N1CCOCC1=O)[nH]/c(=N\C(=O)c1cccc(C(F)F)c1)n2CC1(CO)CC1 [Compound 52, (E)-3-(difluoromethyl)-N-(1-((1-(hydroxymethyl)cyclopropyl)methyl)-6-methoxy-5-(3-oxomorpholino)-1H-benzo[d]imidazol-2(3H)-ylidene)benzamide]	≤ 100 nM	≤ 100 nM
COc1cc2c(cc1N1CCOCC1=O)[nH]/c(=N\C(=O)c1cccc(C(F)(F)F)c1)n2CC1(CO)CC1 [Compound 53, (E)-N-(1-((1-(hydroxymethyl)cyclopropyl)methyl)-6-methoxy-5-(3-oxomorpholino)-1H-benzo[d]imidazol-2(3H)-ylidene)-3-(trifluoromethyl)benzamide]	≤ 100 nM	≤ 100 nM
CS(=O)(=O)c1cccc(C(=O)/N=c2\[nH]c3cc(N4CCOCC4=O)ccc3n2[C@H]2CC[C@@H](O)CC2)c1 [Compound 54, cis-(E)-N-(1-(4-hydroxycyclohexyl)-5-(3-oxomorpholino)-1H-benzo[d]imidazol-2(3H)-ylidene)-3-(methylsulfonyl)benzamide]	≤ 100 nM	≤ 100 nM
N#Cc1cccc(C(=O)/N=c2\[nH]c3cc(N4CCOCC4=O)ccc3n2[C@H]2CC[C@@H](O)CC2)c1 [Compound 55, cis-(E)-3-cyano-N-(1-(4-hydroxycyclohexyl)-5-(3-oxomorpholino)-1H-benzo[d]imidazol-2(3H)-ylidene)benzamide]	≤ 100 nM	≤ 100 nM
O=C(/N=c1\[nH]c2cc(N3CCOCC3=O)ccc2n1[C@H]1CC[C@@H](O)CC1)c1cccc(C(F)F)c1 [Compound 56, cis-(E)-3-(difluoromethyl)-N-(1-(4-hydroxycyclohexyl)-5-(3-oxomorpholino)-1H-benzo[d]imidazol-2(3H)-ylidene)benzamide]	≤ 100 nM	≤ 100 nM
O=C(/N=c1\[nH]c2cc(N3CCOCC3=O)ccc2n1[C@H]1CC[C@@H](O)CC1)c1cccc(C(F)(F)F)c1 [Compound 57, cis-(E)-N-(1-(4-hydroxycyclohexyl)-5-(3-oxomorpholino)-1H-benzo[d]imidazol-2(3H)-ylidene)-3-(trifluoromethyl)benzamide]	≤ 100 nM	≤ 100 nM
N#Cc1cccc(C(=O)/N=c2\[nH]c3cc(N4CCCOC4=O)ccc3n2CCCO)c1 [Compound 58, (E)-3-cyano-N-(1-(3-hydroxypropyl)-5-(2-oxo-1,3-oxazinan-3-yl)-1H-benzo[d]imidazol-2(3H)-ylidene)benzamide]	≤ 100 nM	≤ 100 nM
Cn1nc(C(=O)/N=c2\[nH]c3cc(N4CCOCC4=O)ccc3n2CCCO)c2ccccc21 [Compound 60, (E)-N-(1-(3-hydroxypropyl)-5-(3-oxomorpholino)-1H-benzo[d]imidazol-2(3H)-ylidene)-1-methyl-1H-indazole-3-carboxamide]	> 1000 nM	> 1000 nM
CSCCn1/c(=N/C(=O)c2cccc(C(F)F)c2)[nH]c2cc(N3CCOCC3=O)ccc21 [Compound 63, (E)-3-(difluoromethyl)-N-(1-(2-(methylthio)ethyl)-5-(3-oxomorpholino)-1H-benzo[d]imidazol-2(3H)-ylidene)benzamide]	100 to 1000 nM	≤ 100 nM
